Source: patent US4336375A, “Cephalosporanic acid derivatives” (American Cyanamid Company, priority 1980, dated 1982)
In brackets after ≈: the same amount, converted by molar mass. Like-named read-outs stand apart in the source and are kept apart here.

How the values were obtained:
[1] = system: Klebsiella pneumoniae W-75-2; experiment: In vivo systemic lethal infection of mice, Klebsiella pneumoniae W-75-2; set-up: species or system Charles River CD-1 mice; conditions: CD-1 mice
Excerpt: (§1) As shown in Table II these compounds show high in vivo antibacterial activity against Escherichia coli 311 and Klebsiella pneumoniae W-75-2 when administered by a single subcutaneous dose to groups of Charles River CD-1 mice, weighing about 20 g. each. The mice are infected intraperitoneally with a lethal dose of these bacteria.

Escherichia coli 311 [2] = experiment: In vivo systemic lethal infection of mice, Escherichia coli 311; set-up: species or system Charles River CD-1 mice; conditions: CD-1 mice
Excerpt: as §1

Proteus rettgeri N76-1 = experiment: In vitro MIC, agar dilution, Proteus rettgeri N76-1; format: cell-based; conditions: Providencia rettgeri, N761; Proteus rettgeri N76-1; agar dilution, 35° C., 18 hours, nutrient agar; read-out: Minimal Inhibitory Concentration
Description: (§2) The in vitro activity of representative compounds of the present invention are given in the following Table I in terms of minimal inhibitory concentration. The test used was the standard agar dilution test using a Steers multiple inocula replicator and incubating at 35° C. for 18 hours in conventional nutrient agar.

[3] = system: Enterobacter cloacae OSU75-2; experiment: In vitro MIC, agar dilution, Enterobacter cloacae OSU75-2; format: cell-based; conditions: OSU752; Enterobacter cloacae OSU75-2; agar dilution, 35° C., 18 hours, nutrient agar; read-out: Minimal Inhibitory Concentration
Description: as §2

[4] = system: Pseudomonas aeruginosa G236; experiment: In vitro MIC, agar dilution, Pseudomonas aeruginosa G236; format: cell-based; conditions: Pseudomonas aeruginosa G236; agar dilution, 35° C., 18 hours, nutrient agar; read-out: Minimal Inhibitory Concentration
Description: as §2

Enterococcus SM77-15 = experiment: In vitro MIC, agar dilution, Enterococcus SM77-15; format: cell-based; conditions: SM7715; Enterococcus SM77-15; agar dilution, 35° C., 18 hours, nutrient agar; read-out: Minimal Inhibitory Concentration
Description: as §2

[5] = system: Escherichia coli ESS22-31; experiment: In vitro MIC, agar dilution, Escherichia coli ESS22-31; format: cell-based; conditions: ESS2231; Escherichia coli ESS22-31; agar dilution, 35° C., 18 hours, nutrient agar; read-out: Minimal Inhibitory Concentration
Description: as §2

[6] = system: Klebsiella pneumoniae UR76-1; experiment: In vitro MIC, agar dilution, Klebsiella pneumoniae UR76-1; format: cell-based; conditions: UR761; Klebsiella pneumoniae UR76-1; agar dilution, 35° C., 18 hours, nutrient agar; read-out: Minimal Inhibitory Concentration
Description: as §2

Proteus vulgaris N74-1 = experiment: In vitro MIC, agar dilution, Proteus vulgaris N74-1; format: cell-based; conditions: N741, 35° C., 18 hours, nutrient agar, read-out: Minimal Inhibitory Concentration
Description: as §2

[7] = system: Klebsiella pneumoniae W75-2; experiment: In vitro MIC, agar dilution, Klebsiella pneumoniae W75-2; format: cell-based; conditions: W752; Klebsiella pneumoniae W75-2; agar dilution, 35° C., 18 hours, nutrient agar; read-out: Minimal Inhibitory Concentration
Description: as §2

[8] = system: Enterobacter cloacae MA75-1; experiment: In vitro MIC, agar dilution, Enterobacter cloacae MA75-1; format: cell-based; conditions: read-out: Minimal Inhibitory Concentration
Description: as §2

[9] = system: Klebsiella pneumoniae W75-4; experiment: In vitro MIC, agar dilution, Klebsiella pneumoniae W75-4; format: cell-based; conditions: W754; Klebsiella pneumoniae W75-4; agar dilution, 35° C., 18 hours, nutrient agar; read-out: Minimal Inhibitory Concentration
Description: as §2

[10] = system: Enterobacter aerogenes UR76-3; experiment: In vitro MIC, agar dilution, Enterobacter aerogenes UR76-3; format: cell-based; conditions: Klebsiella aerogenes, UR763; Enterobacter aerogenes UR76-3; agar dilution, 35° C., 18 hours, nutrient agar; read-out: Minimal Inhibitory Concentration
Description: as §2

Escherichia coli OSU75-1 = experiment: In vitro MIC, agar dilution, Escherichia coli OSU75-1; format: cell-based; conditions: OSU751, 35° C., 18 hours, nutrient agar, read-out: Minimal Inhibitory Concentration
Description: as §2

[11] = system: Pseudomonas aeruginosa UCS 76-13; experiment: In vitro MIC, agar dilution, Pseudomonas aeruginosa UCS 76-13; format: cell-based; conditions: UCS7613; Pseudomonas aeruginosa UCS 76-13; agar dilution, 35° C., 18 hours, nutrient agar; read-out: Minimal Inhibitory Concentration
Description: as §2

Escherichia coli 311 [12] = experiment: In vitro MIC, agar dilution, Escherichia coli 311; format: cell-based; conditions: 35° C., 18 hours, nutrient agar, read-out: Minimal Inhibitory Concentration
Description: as §2

Serratia marcens QHC77-2 = experiment: In vitro MIC, agar dilution, Serratia marcens QHC77-2; format: cell-based; conditions: QHC772; Serratia marcens QHC77-2; agar dilution, 35° C., 18 hours, nutrient agar; read-out: Minimal Inhibitory Concentration
Description: as §2

Escherichia coli W75-1 = experiment: In vitro MIC, agar dilution, Escherichia coli W75-1; format: cell-based; conditions: W751, 35° C., 18 hours, nutrient agar, read-out: Minimal Inhibitory Concentration
Description: as §2

Serratia marcens K77-1 = experiment: In vitro MIC, agar dilution, Serratia marcens K77-1; format: cell-based; conditions: K771; Serratia marcens K77-1; agar dilution, 35° C., 18 hours, nutrient agar; read-out: Minimal Inhibitory Concentration
Description: as §2

[13] = system: Pseudomonas aeruginosa PD05141; experiment: In vitro MIC, agar dilution, Pseudomonas aeruginosa PD05141; format: cell-based; conditions: read-out: Minimal Inhibitory Concentration
Description: as §2

Klebsiella pneumoniae AD = experiment: In vitro MIC, agar dilution, Klebsiella pneumoniae AD; format: cell-based; conditions: Klebsiella pneumoniae AD; agar dilution, 35° C., 18 hours, nutrient agar; read-out: Minimal Inhibitory Concentration
Description: as §2

[14] = system: Pseudomonas aeruginosa 12-4-4; experiment: In vitro MIC, agar dilution, Pseudomonas aeruginosa 12-4-4; format: cell-based; conditions: 1244; Pseudomonas aeruginosa 12-4-4; agar dilution, 35° C., 18 hours, nutrient agar; read-out: Minimal Inhibitory Concentration
Description: as §2

[15] = system: Staphylococcus aureus Q74-1; experiment: In vitro MIC, agar dilution, Staphylococcus aureus Q74-1; format: cell-based; conditions: Q741; Staphylococcus aureus Q74-1; agar dilution, 35° C., 18 hours, nutrient agar; read-out: Minimal Inhibitory Concentration
Description: as §2

[16] = system: Staphylococcus aureus Q74-6; experiment: In vitro MIC, agar dilution, Staphylococcus aureus Q74-6; format: cell-based; conditions: Q746; Staphylococcus aureus Q74-6; agar dilution, 35° C., 18 hours, nutrient agar; read-out: Minimal Inhibitory Concentration
Description: as §2

Serratia K101 = experiment: In vitro MIC, agar dilution, Serratia K101; format: cell-based; conditions: Serratia K101; agar dilution, 35° C., 18 hours, nutrient agar; read-out: Minimal Inhibitory Concentration
Description: as §2

[17] = system: Klebsiella pneumoniae MA75-1; experiment: In vitro MIC, agar dilution, Klebsiella pneumoniae MA75-1; format: cell-based; conditions: MA751; Klebsiella pneumoniae MA75-1; agar dilution, 35° C., 18 hours, nutrient agar; read-out: Minimal Inhibitory Concentration
Description: as §2

Proteus morganii K72 = experiment: In vitro MIC, agar dilution, Proteus morganii K72; format: cell-based; conditions: Morganella morganii; Proteus morganii K72; agar dilution, 35° C., 18 hours, nutrient agar; read-out: Minimal Inhibitory Concentration
Description: as §2

[18] = single subcutaneous dose 0.5 mg./kg.
[19] = single subcutaneous dose 1 mg./kg.
[20] = single subcutaneous dose 2 mg./kg.
[21] = single subcutaneous dose 4 mg./kg.
[22] = single subcutaneous dose 8 mg./kg.
[23] = single subcutaneous dose 0.12 mg./kg.
[24] = single subcutaneous dose 0.25 mg./kg.

SMILES | Alive/Total Mice Tested, 7 Days After Infection [1, 18] | Alive/Total Mice Tested, 7 Days After Infection (Escherichia coli 311 [2]; [21]) | MIC (Proteus rettgeri N76-1) [µg/mL] | MIC [3] [µg/mL] | MIC [4] [µg/mL] | MIC (Enterococcus SM77-15) [µg/mL] | MIC [5] [µg/mL] | MIC [6] [µg/mL] | MIC (Proteus vulgaris N74-1) [µg/mL] | MIC [7] [µg/mL] | MIC [9] [µg/mL] | MIC [10] [µg/mL] | MIC (Escherichia coli OSU75-1) [µg/mL] | MIC [11] [µg/mL] | MIC (Escherichia coli 311 [12]) [µg/mL] | MIC (Serratia marcens QHC77-2) [µg/mL] | MIC (Escherichia coli W75-1) [µg/mL] | MIC (Serratia marcens K77-1) [µg/mL] | MIC (Klebsiella pneumoniae AD) [µg/mL] | MIC [14] [µg/mL] | other results
Cn1nnnc1SCC1=C(C(=O)O)N2C(=O)[C@@H](NC(=O)[C@H](O)c3ccccc3)[C@H]2SC1 [Cefamandol] | 0/20 | 6/20 |  |  |  |  |  |  |  |  |  |  |  |  |  |  |  |  |  |  | Alive/Total Mice Tested, 7 Days After Infection [1, 19]: 1/20; Alive/Total Mice Tested, 7 Days After Infection [1, 20]: 7/20; Alive/Total Mice Tested, 7 Days After Infection [1, 21]: 19/20; Alive/Total Mice Tested, 7 Days After Infection [1, 22]: 20/20; Alive/Total Mice Tested, 7 Days After Infection (Escherichia coli 311 [2]; [22]): 11/20; Alive/Total Mice Tested, 7 Days After Infection (Escherichia coli 311 [2]; single subcutaneous dose 16 mg./kg.): 20/20; Alive/Total Mice Tested, 7 Days After Infection (Escherichia coli 311 [2]; single subcutaneous dose 32 mg./kg.): 20/20
CO/N=C(\C(=O)NC1C(=O)N2C(C(=O)O)=C(CSc3nnc(-n4cccn4)n3N)CSC12)c1csc(N)n1 (stereo not drawn) [Compound I, 7-[2-(Syn-methoxyimino)-2-(2-aminothiazol-4-yl)acetamido]-3-[4-amino-5-(1-pyrazolyl)-1,2,4-triazol-3-ylthiomethyl]-3-cephem-4-carboxylic acid] | 19/20 |  | ≤ 0.12 | 0.5 (≈ 0.866 µM) | 64 (≈ 111 µM) | > 128 | ≤ 0.12 | 0.5 (≈ 0.866 µM) | ≤ 0.12 | ≤ 0.12 | ≤ 0.12 | ≤ 0.12 | ≤ 0.12 | 128 (≈ 222 µM) | ≤ 0.12 | 1 (≈ 1.73 µM) | ≤ 0.12 | 0.5 (≈ 0.866 µM) | ≤ 0.12 | 64 (≈ 111 µM) | MIC ([8]; MA751, Enterobacter cloacae MA75-1, agar dilution, 35° C., 18 hours, nutrient agar): 128 µg/mL (≈ 222 µM); MIC ([13]; Pseudomonas aeruginosa, PD05141, 18 h): 128 µg/mL (≈ 222 µM); MIC [15]: 2 µg/mL (≈ 3.46 µM); MIC [16]: 64 µg/mL (≈ 111 µM); MIC (Serratia K101): 0.5 µg/mL (≈ 0.866 µM); Alive/Total Mice Tested, 7 Days After Infection ([1]; single subcutaneous dose 0.06 mg./kg.): 1/20; Alive/Total Mice Tested, 7 Days After Infection [1, 23]: 2/20; Alive/Total Mice Tested, 7 Days After Infection [1, 24]: 14/20; MIC [17]: ≤ 0.12 µg/mL; Alive/Total Mice Tested, 7 Days After Infection (Escherichia coli 311 [2]; [23]): 1/20; Alive/Total Mice Tested, 7 Days After Infection (Escherichia coli 311 [2]; [24]): 6/20; Alive/Total Mice Tested, 7 Days After Infection (Escherichia coli 311 [2]; [18]): 15/20; Alive/Total Mice Tested, 7 Days After Infection (Escherichia coli 311 [2]; [19]): 19/20; MIC (Proteus morganii K72): ≤ 0.12 µg/mL
CO/N=C(\C(=O)NC1C(=O)N2C(C(=O)O)=C(CSc3n[nH]c(-n4cccn4)n3)CSC12)c1csc(N)n1 (stereo not drawn) [Compound V, 7-[2-(Syn-methoxyimino)-2-(2-aminothiazol-4-yl)acetamido]-3-[5-(1-pyrazolyl)-1,2,4-triazol-3-ylthiomethyl]-3-cephem-4-carboxylic acid] |  | 5/5 | ≤ 0.12 | 4 (≈ 7.11 µM) | 16 (≈ 28.4 µM) | > 128 | ≤ 0.12 | 0.25 (≈ 0.444 µM) | 2 (≈ 3.55 µM) | ≤ 0.12 | ≤ 0.12 | ≤ 0.12 | ≤ 0.12 | 64 (≈ 114 µM) | ≤ 0.12 | 0.25 (≈ 0.444 µM) | ≤ 0.12 | 0.5 (≈ 0.889 µM) | ≤ 0.12 | 16 (≈ 28.4 µM) | MIC ([8]; Enterobacter cloacae, MA751, 18 h): > 128 µg/mL; MIC ([13]; Pseudomonas aeruginosa PD05141, agar dilution, 35° C., 18 hours, nutrient agar): 64 µg/mL (≈ 114 µM); MIC [15]: 1 µg/mL (≈ 1.78 µM); MIC [16]: 64 µg/mL (≈ 114 µM); MIC (Serratia K101): 0.5 µg/mL (≈ 0.889 µM); MIC [17]: ≤ 0.12 µg/mL; Alive/Total Mice Tested, 7 Days After Infection (Escherichia coli 311 [2]; [24]): 0/5; Alive/Total Mice Tested, 7 Days After Infection (Escherichia coli 311 [2]; [18]): 0/5; Alive/Total Mice Tested, 7 Days After Infection (Escherichia coli 311 [2]; [19]): 5/5; Alive/Total Mice Tested, 7 Days After Infection (Escherichia coli 311 [2]; [20]): 5/5; MIC (Proteus morganii K72): ≤ 0.12 µg/mL
